According to paper PMC5739799 (Oncotarget, 2017):
Where two headings read alike, the source gives them in different places.

Legend:
HCC-PDX model 19 = assay: Patient-derived HCC xenograft model 19, tumor growth; assay type: in vivo, BALB/c nude mice
Method: (§1) The PDX studies were carried out by WuXi AppTec (Shanghai, China). HCC-PDX models were originally established from surgically resected tumor tissue that was implanted in 6–8-week-old female BALB/c nude mice. Animal studies were performed according to the guidelines approved by the Institutional Animal Care and Use Committee of Wuxi AppTec, which follow the guidance of the Association for the Assessment and Accreditation of Laboratory Animal Care. Animals were routinely monitored for their health status and their body weights. Treatment was suspended and/or doses reduced at body weight losses >10%. Animals were euthanized when the tumor size exceeded 2000 mm^3. Pieces from tumor xenografts (∼30 mm^3) from passages 4–8 (ST1) were implanted subcutaneously at the right flank, and tumors were grown to an average size of about 150–200 mm^3. […] Tumor size was measured twice weekly using caliper measurements. Tumor volume (mm^3) was calculated using the formula 0.5 a × b^2, where a and b are the long and short diameters of the tumor, respectively. TGI was assessed either by calculating the ratio of the mean tumor volumes of treated and control groups or by determination of the RTV, which relates tumor volumes at any given day of treatment to the volume at the first treatment day.
(§2) In the syngenic orthotopic H129 model, differences in survival times between groups were analyzed for significance using log-rank tests. Analysis of tumor volumes of the HCC-PDX models was performed with log2-transformed values on defined days of measurement based on the assumption of their log-normal distribution. […] All respective statistical test results were derived from a common linear model that allows for individual variances in the different groups. The adjustment for multiple testing was carried out using Šidák correction at a significance level of 0.05. Back transformation of the mean difference of log2-transformed tumor volumes led to the ratios of the compared groups, whereby ratios of 1 reflect no difference in tumor volumes and ratios below or above 1 reflect smaller or larger tumor volumes, respectively, of the respective second group. The analyses of RTV were carried out in a similar fashion without the log2 transformation of values. Bead-based western data were analyzed (described in [15]) using the MEV 4.8.1 software package. A p-value <0.05 was regarded as significant. All statistical analyses were performed with SAS® 9.4 [34].

HCC-PDX model 101 = assay: Patient-derived HCC xenograft model 101, tumor growth; assay type: in vivo, BALB/c nude mice
Method: as §1, §2

H129 hepatoma = assay: Syngenic orthotopic H129 hepatoma mouse model, survival; assay type: in vivo, C3H/HeN mice; conditions: regorafenib 10 mg/kg/day oral, start 4–5 days after implantation, vehicle 27 days
Source text: C3H/HeN mice aged 10–12 weeks with an average weight of 25 g were used for this model and were obtained from Charles River (Sulzfeld, Germany). Experiments were initiated after an acclimatizing period of at least 8 days. Syngenic murine H129 hepatoma cells (obtained from Dr. V. Schmitz, University of Bonn, Germany) were cultivated in RPMI medium, containing 10% fetal calf serum (FCS) and 5% glutamine. Cells were harvested in a subconfluent state (70–80%), prepared for injection of 5×10^4 cells/20 μL in growth factor-free Matrigel, and transplanted in the left upper liver lobe. Animals with surgical failures were marked and excluded from the experiment. Treatment was initiated 4–5 days after transplantation. One set of mice received regorafenib 10 mg/kg once daily, vehicle solution once daily, or no treatment (n=8 per treatment group). […] Treatments were given orally via gavage. The vehicle solution contained 10% Transcutol, 10% Cremophor, and 80% 0.9% NaCl. Animals were weighed twice a week and monitored daily for behavior and wound healing. […] Due to ascites formation in the peritoneum (a symptom of the disease), body weight was not used as part of the assessment. Animals were dissected to assess the cause of death unless they had died in their cage overnight.
(§3) In the syngenic orthotopic H129 model, differences in survival times between groups were analyzed for significance using log-rank tests. Analysis of tumor volumes of the HCC-PDX models was performed with log2-transformed values on defined days of measurement based on the assumption of their log-normal distribution. […] All respective statistical test results were derived from a common linear model that allows for individual variances in the different groups. The adjustment for multiple testing was carried out using Šidák correction at a significance level of 0.05. […] Bead-based western data were analyzed (described in [15]) using the MEV 4.8.1 software package. […]

HCC-PDX model 141 = assay: Patient-derived HCC xenograft model 141, tumor growth; assay type: in vivo, BALB/c nude mice
Method: as §1, §2

[1] = tested on: 10 patient-derived HCC xenograft (HCC-PDX) models; assay: Panel of 10 HCC-PDX models, overall response and tolerability; assay type: in vivo, BALB/c nude mice; conditions: 10 HCC-PDX models; regorafenib 10, sorafenib 30 mg/kg/day oral
Method: as §1, §3

HCC-PDX model 159 = assay: Patient-derived HCC xenograft model 159, tumor growth; assay type: in vivo, BALB/c nude mice
Method: as §1, §2

HCC-PDX model 5 = assay: Patient-derived HCC xenograft model 5, tumor growth; assay type: in vivo, BALB/c nude mice
Method: as §1, §2

[2] = Steady-state plasma pharmacokinetics after oral dosing for 5 days; assay type: in vivo, BALB/c nu/nu mice
Method: Pharmacokinetic studies were performed in 6–8-week-old female BALB/c nu/nu mice (Charles River, Sulzfeld, Germany). […] Parent compounds and metabolites M-2 and M-5 were analyzed in plasma samples using validated bioanalytical liquid chromatography-tandem mass spectrometry (LC-MS/MS) methods according to an experimental protocol described earlier. PK parameters, namely the AUC(0–24)ss and Cmax, were calculated from plasma concentrations using a non-compartmental analysis.

HCC-PDX model 189 = assay: Patient-derived HCC xenograft model 189, tumor growth; assay type: in vivo, BALB/c nude mice
Method: as §1, §2

HCC-PDX model 10 = assay: Patient-derived HCC xenograft model 10, tumor growth; assay type: in vivo, BALB/c nude mice
Method: as §1, §2

HCC-PDX model 20 = assay: Patient-derived HCC xenograft model 20, tumor growth; assay type: in vivo, BALB/c nude mice
Method: as §1, §2

[3] = day 28, R 10 / S 30 mg/kg/day oral starting dose
[4] = plasma analyte after oral regorafenib 10 mg/kg/day for 5 days

## CNC(=O)c1cc(Oc2ccc(NC(=O)Nc3ccc(Cl)c(C(F)(F)F)c3)c(F)c2)ccn1 [Regorafenib]
HCC-PDX model 19; day 28
  log TV Ratio, compound vs vehicle (T/C): 0.66
  log TV Ratio, regorafenib vs sorafenib: 1.06
HCC-PDX model 19; [3]
  Mean TV: 542.38 mm^3
HCC-PDX model 19; day 28, log2-transformed TV
  log TV Differences of least square-means, compound vs vehicle: -0.6083
  log TV Differences of least square-means, regorafenib vs sorafenib: 0.08047
HCC-PDX model 19; day 42
  RTV Differences of least square-means, compound vs vehicle: -24.1
  RTV Differences of least square-means, regorafenib vs sorafenib: 0.5174
HCC-PDX model 19; end of study, day 42
  RTV: 5.21
HCC-PDX model 101; day 28
  log TV Ratio, compound vs vehicle (T/C): 0.19
  log TV Ratio, regorafenib vs sorafenib: 0.41
HCC-PDX model 101; [3]
  Mean TV: 177.21 mm^3
HCC-PDX model 101; end of study, day 42
  RTV: 2.06
H129 hepatoma
  Median survival, days (95% CI): 36 (31, 38) days
H129 hepatoma; listed as regorafenib
  Median survival, days (95% CI): 36 days
HCC-PDX model 141; day 28
  log TV Ratio, compound vs vehicle (T/C): 0.10
  log TV Ratio, regorafenib vs sorafenib: 0.76
HCC-PDX model 141; [3]
  Mean TV: 89.74 mm^3
HCC-PDX model 141; day 28, log2-transformed TV
  log TV Differences of least square-means, regorafenib vs sorafenib: -0.3980
HCC-PDX model 141; end of study, day 42
  RTV: 1.04
[1]
  Models with significant tumor growth inhibition: 8/10
HCC-PDX model 159; day 28
  log TV Ratio, compound vs vehicle (T/C): 0.59
  log TV Ratio, regorafenib vs sorafenib: 0.78
HCC-PDX model 159; [3]
  Mean TV: 864.43 mm^3
HCC-PDX model 159; day 28, log2-transformed TV
  log TV Differences of least square-means, compound vs vehicle: -0.7546
  log TV Differences of least square-means, regorafenib vs sorafenib: -0.3604
HCC-PDX model 159; day 35
  RTV Differences of least square-means, regorafenib vs sorafenib: -0.6894
HCC-PDX model 159; end of study, day 35
  RTV: 9.04
HCC-PDX model 5; day 28
  log TV Ratio, compound vs vehicle (T/C): 0.13
  log TV Ratio, regorafenib vs sorafenib: 0.73
HCC-PDX model 5; [3]
  Mean TV: 80.96 mm^3
HCC-PDX model 5; day 28, log2-transformed TV
  log TV Differences of least square-means, compound vs vehicle: -29,518
  log TV Differences of least square-means, regorafenib vs sorafenib: -0.4634
HCC-PDX model 5; day 46
  RTV Differences of least square-means, compound vs vehicle: -60,049
  RTV Differences of least square-means, regorafenib vs sorafenib: -0.6001
HCC-PDX model 5; end of study, day 46
  RTV: 1.14
[2]; after oral regorafenib 10 mg/kg/day for 5 days, total = molar sum of regorafenib, M-2, M-5
  AUC(0–24)ss (percent of total): 90% of total
[2]; female, BALB/c nu/nu, mouse, plasma analyte after oral regorafenib 10 mg/kg/day for 5 days, read-out: AUC(0–24)ss
  AUC(0-t): 93100 ng·h/mL
[2]; female, BALB/c nu/nu, mouse, plasma analyte after oral regorafenib 10 mg/kg/day for 5 days, read-out: Cmax
  Cmax: 10700 ng/mL
[2]; [4]
  AUC(0–24)ss: 193 µM·h
  Cmax: 22.2 µM
[2]; regorafenib 10 mg/kg once daily for 5 days, parent plus metabolites
  Cumulated maximum concentration (Cmax): 24.5 µM
HCC-PDX model 189; day 21
  RTV Differences of least square-means, compound vs vehicle: -31,656
  RTV Differences of least square-means, regorafenib vs sorafenib: -0.2628
  log TV Ratio, compound vs vehicle (T/C): 0.42
  log TV Ratio, regorafenib vs sorafenib: 0.88
HCC-PDX model 189; day 21, R 10 / S 30 mg/kg/day oral starting dose
  Mean TV: 322.88 mm^3
HCC-PDX model 189; day 21, log2-transformed TV
  log TV Differences of least square-means, compound vs vehicle: -12,395
  log TV Differences of least square-means, regorafenib vs sorafenib: -0.1791
HCC-PDX model 189; end of study, day 21
  RTV: 2.39
HCC-PDX model 10; RTV analysis day R 40, S 30
  RTV Differences of least square-means, regorafenib vs sorafenib: -99,327
HCC-PDX model 10; day 12
  log TV Ratio, compound vs vehicle (T/C): 0.15
  log TV Ratio, regorafenib vs sorafenib: 0.53
HCC-PDX model 10; day 12, R 10 / S 30 mg/kg/day oral
  Mean TV: 332.11 mm^3
HCC-PDX model 10; day 12, log2-transformed TV
  log TV Differences of least square-means, compound vs vehicle: -27,077
  log TV Differences of least square-means, regorafenib vs sorafenib: -0.9111
HCC-PDX model 10; end of study (RTV analysis day R 40, S 30)
  RTV: 9.15
HCC-PDX model 20; day 21
  log TV Ratio, compound vs vehicle (T/C): 0.73
  log TV Ratio, regorafenib vs sorafenib: 0.93
HCC-PDX model 20; day 21, R 10 / S 30 mg/kg/day oral
  Mean TV: 742.98 mm^3
HCC-PDX model 20; day 21, log2-transformed TV
  log TV Differences of least square-means, compound vs vehicle: -0.4621
  log TV Differences of least square-means, regorafenib vs sorafenib: -0.1048
HCC-PDX model 20; day 42
  RTV Differences of least square-means, compound vs vehicle: -23.2
  RTV Differences of least square-means, regorafenib vs sorafenib: -11
HCC-PDX model 20; end of study, day 42
  RTV: 9.46
